Test [1] addresses T1, recombinant BRD4 BD2 (Homo sapiens, UniProt O60885).
T1 construct: for recombinant BRD4 BD1 and BRD4 BD2 proteins
The test can be described thus: Competitive fluorescence-polarization (FP) binding assay, BRD4 BD2. The method, then:
Fluorescence Polarization (FP) competitive binding studies were carried out using a FAM labeled fluorescent probe, see, e.g., Cpd. No. 350 of US 2014/0256706, to determine binding affinities of representative Compounds of the Disclosure for recombinant BRD4 BD1 and BRD4 BD2 proteins. Equilibrium dissociation constants (Kd) values of the fluorescent probe to BRD4 BD1 and BD2 proteins were determined from protein saturation experiments by monitoring the total fluorescence polarization of mixtures composed with the fluorescent probe at a fixed concentration and proteins with increasing concentrations up to full saturation. Serial dilutions of testing proteins were mixed with the fluorescent probe to a final volume of 200 μl in the assay buffer (100 mM phosphate buffer, pH=6.5, 0.01% Triton X-100 (Sigma, 282103) being added right before assays). Final fluorescent probe concentration was 1.5 nM for both proteins. Plates were incubated at room temperature for 30 minutes with gentle shaking to assure equilibrium. FP values in millipolarization units (mP) were measured using the Infinite M-1000 plate reader (Tecan U.S., Research Triangle Park, N.C.) in Microfluor 1 96-well, black, round-bottom plates (Thermo Scientific, Waltham, Mass.) at an excitation wavelength of 485 nm and an emission wavelength of 530 nm. Kd values of the fluorescent probe, which were calculated by fitting the sigmoidal dose-dependent FP increases as a function of protein concentrations using Graphpad Prism 6.0 software (Graphpad Software, San Diego, Calif.), are 5.5 and 3.0 nM to BDR4 BD1 and 2, respectively.
The IC50 and Ki values of compounds were determined in a competitive binding experiment. See US 2014/0256706. Mixtures of 10 μl of the tested compounds in assay buffer with 40% Ethylene Glycol and 190 μl of preincubated protein/probe complex solution in the assay buffer (100 mM potassium phosphate, pH 6.5, 0.01% Triton X-100) were added into assay plates which were incubated at room temperature for 30 minutes with gentle shaking. Final concentrations of proteins were 10 and 6 nM in assays for BRD4 BD1 and BD2, respectively. Final probe concentration is 1.5 nM in both assays. Negative controls containing protein/probe complex only (equivalent to 0% inhibition), and positive controls containing only free probes (equivalent to 100% inhibition), were included in each assay plate. FP values were measured as described above. IC50 values were determined by nonlinear regression fitting of the competition curves. Instead of being calculated from IC50 values as described before. Ki values of competitive inhibitors were obtained directly by nonlinear regression fitting as well, based upon the Kd values of the probe to different proteins, and concentrations of the proteins and probes in the competitive assays (US 2014/0256706; Wang, FEBS Lett. 360:111 (1995); Zhang et al., Analytical Biochemistry, 331:138 (2004)).
Representative compounds in Table 5 were evaluated for their binding affinities to BRD4 BD1 and BD2 proteins using the Competitive Fluorescence-Polarization (FP) Assays described in Example 6, with the data included in Table 6.

For test [2], the system named is MOLM-13. The test can be described thus: Cell growth inhibition, 4-day proliferation assay, MOLM-13. The settings on record: Homo sapiens, MOLM-13, WST-8 assay, Table 7; read-out: Cell growth inhibition (IC50 (nM)) MOLM-13. Format: cell-based. The method, then: (§1) The effect of representative Compounds of the Disclosure on cell viability was determined in a 4-day proliferation assay. Cells were maintained in the appropriate culture medium with 100/0 FBS at 37° C. and an atmosphere of 5% CO2. All the cell lines were used within three months of thawing fresh vials.
(§2) In general, cells were seeded in 96-well flat bottom (Corning COSTAR, Corning, N.Y., cat #3595) or white opaque cell culture plates (BD Falcon, cat #353296) at a density of 3,000-10,000 cells/well in 75 μl of culture medium. Compounds were serially diluted in the appropriate medium, and 75 μl of the diluted compounds were added to the appropriate wells of the cell plate. After the addition of compounds, the cells were incubated at 37° C. in an atmosphere of 5% CO2 for 4 days. Cell viability was determined using the CellTiter-Glo® Luminescent Cell Viability Assay Kit (Promega, Madison, Wis.) for leukemia cells and WST (2-(2-methoxy-4-nitrophenyl)-3-(4-nitrophenyl)-5-(2,4-disulfophenyl)-2H-tetrazolium, monosodium salt) Cell Counting-8 Kit (Dojindo Molecular Technologies, Inc., Rockville, Md.) for adherent cells according to the manufacturers' instructions.
(§3) For WST assay (adherent cells), WST-8 reagent was added to each well at a final concentration of 10% (v/v), and then the plates were incubated at 37° C. for 1-2 hours for color development. The absorbance was measured at 450 nm using a SPECTRAmax PLUS plate reader (Molecular Devices, Sunnyvale, Calif.). The readings were normalized to the DMSO-treated cells and the half maximal inhibitory concentration (IC50) was calculated by nonlinear regression (four parameters sigmoid fitted with variable slope, least squares fit, and no constraint) analysis using the GraphPad Prism 5 software (GraphPad Software, La Jolla, Calif.).
(§4) For CellTiter-Glo assay (suspension cells), 100 μl of CellTiter-Glo® Reagent was added to each well, and then the plates were incubated at room temperature for 10-20 minutes. The luminescent signal was measured using a Tecan Infinite M1000 multimode microplate reader (Tecan, Morrisville, N.C.). The readings were normalized to the DMSO-treated cells and the IC50 was calculated by nonlinear regression (four parameters sigmoid fitted with variable slope, least squares fit, and no constraint) analysis using the GraphPad Prism 5 software. See US 2014/0256706.
(§5) For a number of representative compounds in Table 5, their IC50 values in cell growth inhibition activity in the RS4;11 and MOLM-13 human leukemia cell lines and the MDA-MB-231 breast cancer cell line were evaluated using the WST-8 assay described in EXAMPLE 7, with the data shown in Table 7.
In general terms: Tetrazolium dyes change colour on reduction, which living cells bring about.

In test [3] the test system is MDA-MB-231. The test can be described thus: Cell growth inhibition, 4-day proliferation assay, MDA-MB-231. Format: cell-based. To be noted: Homo sapiens, MDA-MB-231; WST-8 assay, Table 7; read-out: Cell growth inhibition (IC50 (nM)) MDA-MB-231. The method, then:
as §1, §2, §3, §4, §5

In the case of `Cc1c(C#Cc2ccc(N)cn2)sc2c1C(c1ccc(Cl)cc1)=N[C@@H](C)c1nnc(C)n1-2` [Cpd. No. 32, (S)-6-((4-(4-chlorophenyl)-3,6,9-trimethyl-6H-thieno[3,2-f][1,2,4]triazolo[4,3-a][1,4]diazepin-2-yl)ethynyl)pyridin-3-amine], the concentration for half-maximal inhibition (IC50) in test [1] was found to be 9.87 nM.

On to `COc1ccc(C#Cc2sc3c(c2C)C(c2ccc(Cl)cc2)=N[C@@H](C)c2nnc(C)n2-3)nc1` [Cpd. No. 36, (S)-4-(4-chlorophenyl)-2-((5-methoxypyridin-2-yl)ethynyl)-3,6,9-trimethyl-6H-thieno[3,2-f][1,2,4]triazolo[4,3-a][1,4]diazepine], for which the half-inhibitory concentration (IC50) in test [1] is 11.7 nM.

For the molecule `Cc1c(C#Cc2nccs2)sc2c1C(c1ccc(Cl)cc1)=N[C@@H](C)c1nnc(C)n1-2` [Cpd. No. 35, (S)-4-(4-chlorophenyl)-3,6,9-trimethyl-2-(thiazol-2-ylethynyl)-6H-thieno[3,2-f][1,2,4]triazolo[4,3-a][1,4]diazepine], the IC50 in test [1] was found to be 22 nM.

Take `Cc1c(C#Cc2cn[nH]c2)sc2c1C(c1ccc(Cl)cc1)=NCc1nnc(C)n1-2` [Cpd. No. 21, 2-((1H-pyrazol-4-yl)ethynyl)-4-(4-chlorophenyl)-3,9-dimethyl-6H-thieno[3,2-f][1,2,4]triazolo[4,3-a][1,4]diazepine]: in test [1], the 50% inhibitory concentration (IC50) was determined as 37.4 nM.

Consider `Cc1c(C#Cc2cncs2)sc2c1C(c1ccc(Cl)cc1)=N[C@@H](C)c1nnc(C)n1-2` [Cpd. No. 34, (S)-4-(4-chlorophenyl)-3,6,9-trimethyl-2-(thiazol-5-ylethynyl)-6H-thieno[3,2-f][1,2,4]triazolo[4,3-a][1,4]diazepine], for which the 50% inhibitory concentration (IC50) in test [1] stood at 21.8 nM.

As to `Cc1c(C#Cc2cnn(C)c2)sc2c1C(c1ccc(Cl)cc1)=N[C@@H](CC(=O)N1CCNCC1)c1nnc(C)n1-2` [Compound 161, (S)-2-(4-(4-chlorophenyl)-3,9-dimethyl-2-((1-methyl-1H-pyrazol-4-yl)ethynyl)-6H-thieno[3,2-f][1,2,4]triazolo[4,3-a][1,4]diazepin-6-yl)-1-(piperazin-1-yl)ethan-1-one], the concentration for half-maximal inhibition (IC50) in test [2] worked out at 10.9 nM; in test [3], 76.2 nM.

For the molecule `Cc1c(C#Cc2cncn2C)sc2c1C(c1ccc(Cl)cc1)=N[C@@H](C)c1nnc(C)n1-2` [Cpd. No. 30, (S)-4-(4-chlorophenyl)-3,6,9-trimethyl-2-((1-methyl-1H-imidazol-5-yl)ethynyl)-6H-thieno[3,2-f][1,2,4]triazolo[4,3-a][1,4]diazepine], the concentration for half-maximal inhibition (IC50) in test [1] amounted to 13.5 nM.

`Cc1c(C#Cc2cnn(C)c2)sc2c1C(c1ccc(Cl)cc1)=N[C@@H](CC(C)C)c1nnc(C)n1-2` [Compound 108, (S)-4-(4-chlorophenyl)-6-isobutyl-3,9-dimethyl-2-((1-methyl-1H-pyrazol-4-yl)ethynyl)-6H-thieno[3,2-f][1,2,4]triazolo[4,3-a][1,4]diazepine]: the IC50 amounted to 232 nM in test [2] and 200 ± 30 nM in test [3].

Take `Cc1c(C#Cc2ccc(N)nc2)sc2c1C(c1ccc(Cl)cc1)=N[C@@H](CC(C)C)c1nnc(C)n1-2` [Compound 107, (S)-5-((4-(4-chlorophenyl)-6-isobutyl-3,9-dimethyl-6H-thieno[3,2-f][1,2,4]triazolo[4,3-a][1,4]diazepin-2-yl)ethynyl)pyridin-2-amine]: the IC50 in test [2] was 363 nM; in test [3] it was 320 ± 90 nM.

As for `Cc1c(C#Cc2cncn2C)sc2c1C(c1ccc(Cl)cc1)=N[C@@H](CC(=O)N1CCNCC1)c1nnc(C)n1-2` [Compound 164], the IC50 in test [2] turned out to be 85.4 nM; in test [3] it was 304 nM.

Regarding `Cc1c(C#CCN2CCN(C)CC2)sc2c1C(c1ccc(Cl)cc1)=N[C@@H](C)c1nnc(C)n1-2` [Cpd. No. 33, (S)-4-(4-chlorophenyl)-3,6,9-trimethyl-2-(3-(4-methylpiperazin-1-yl)prop-1-yn-1-yl)-6H-thieno[3,2-f][1,2,4]triazolo[4,3-a][1,4]diazepine], the IC50 in test [1] came out at 42.2 nM.

On to `Cc1c(C#Cc2ccc(F)cn2)sc2c1C(c1ccc(Cl)cc1)=N[C@@H](C)c1nnc(C)n1-2` [Cpd. No. 31, (S)-4-(4-chlorophenyl)-2-((5-fluoropyridin-2-yl)ethynyl)-3,6,9-trimethyl-6H-thieno[3,2-f][1,2,4]triazolo[4,3-a][1,4]diazepine], for which the IC50 in test [1] amounted to 19.5 nM.

`Cc1c(C#CC2CCCC2)sc2c1C(c1ccc(Cl)cc1)=N[C@@H](C)c1nnc(C)n1-2` [Cpd. No. 29, (S)-4-(4-chlorophenyl)-2-(cyclopentylethynyl)-3,6,9-trimethyl-6H-thieno[3,2-f][1,2,4]triazolo[4,3-a][1,4]diazepine]: in test [1], the concentration for half-maximal inhibition (IC50) amounted to 10.3 nM.

On to `Cc1nnc(C[C@@H]2N=C(c3ccc(Cl)cc3)c3c(sc(C#CC4(O)COC4)c3C)-n3c(C)nnc32)o1` [Compound 142, (S)-3-((4-(4-chlorophenyl)-3,9-dimethyl-6-((5-methyl-1,3,4-oxadiazol-2-yl)methyl)-6H-thieno[3,2-f][1,2,4]triazolo[4,3-a][1,4]diazepin-2-yl)ethynyl)oxetan-3-ol], for which the half-inhibitory concentration (IC50) in test [2] worked out at 95.9 nM; in test [3], 785 nM.

With `Cc1nnc(C[C@@H]2N=C(c3ccc(Cl)cc3)c3c(sc(C#Cc4cnn(C)c4)c3C)-n3c(C)nnc32)o1` [Compound 141, (S)-2-((4-(4-chlorophenyl)-3,9-dimethyl-2-((1-methyl-1H-pyrazol-4-yl)ethynyl)-6H-thieno[3,2-f][1,2,4]triazolo[4,3-a][1,4]diazepin-6-yl)methyl)-5-methyl-1,3,4-oxadiazole], the IC50 was determined as 1.7 nM in test [2] and 31.2 nM in test [3].

Consider `Cc1c(C#Cc2cnn(C)c2)sc2c1C(c1ccc(Cl)cc1)=N[C@@H](CC(=O)N1CCN(C)CC1)c1nnc(C)n1-2` [Compound 162, (S)-2-(4-(4-chlorophenyl)-3,9-dimethyl-2-((1-methyl-1H-pyrazol-4-yl)ethynyl)-6H-thieno[3,2-f][1,2,4]triazolo[4,3-a][1,4]diazepin-6-yl)-1-(4-methylpiperazin-1-yl)ethan-1-one], for which the half-maximal inhibitory concentration (IC50) turned out to be 19.2 nM in test [2] and 109 ± 38 nM in test [3].

One may read the IC50 as the concentration at which inhibition is half-maximal.

The values above are taken from US11046709B2, “Fused 1,4-diazepines as BET bromodomain inhibitors” (THE REGENTS OF THE UNIVERSITY OF MICHIGAN, priority 2017, dated 2021).
